Reference: ChEMBL document CHEMBL1140940, “Pyrido[2,3-d]pyrimidin-5-ones: a novel class of antiinflammatory macrophage colony-stimulating factor-1 receptor inhibitors” (J Med Chem, 2009)

Key:
[1] = molecular target: T1, Receptor-type tyrosine-protein kinase FLT3 (Homo sapiens, UniProt P36888); assay: Inhibition of FLT3 by fluorescence polarization competition immunoassay
T1 sequence (P36888 whole entry): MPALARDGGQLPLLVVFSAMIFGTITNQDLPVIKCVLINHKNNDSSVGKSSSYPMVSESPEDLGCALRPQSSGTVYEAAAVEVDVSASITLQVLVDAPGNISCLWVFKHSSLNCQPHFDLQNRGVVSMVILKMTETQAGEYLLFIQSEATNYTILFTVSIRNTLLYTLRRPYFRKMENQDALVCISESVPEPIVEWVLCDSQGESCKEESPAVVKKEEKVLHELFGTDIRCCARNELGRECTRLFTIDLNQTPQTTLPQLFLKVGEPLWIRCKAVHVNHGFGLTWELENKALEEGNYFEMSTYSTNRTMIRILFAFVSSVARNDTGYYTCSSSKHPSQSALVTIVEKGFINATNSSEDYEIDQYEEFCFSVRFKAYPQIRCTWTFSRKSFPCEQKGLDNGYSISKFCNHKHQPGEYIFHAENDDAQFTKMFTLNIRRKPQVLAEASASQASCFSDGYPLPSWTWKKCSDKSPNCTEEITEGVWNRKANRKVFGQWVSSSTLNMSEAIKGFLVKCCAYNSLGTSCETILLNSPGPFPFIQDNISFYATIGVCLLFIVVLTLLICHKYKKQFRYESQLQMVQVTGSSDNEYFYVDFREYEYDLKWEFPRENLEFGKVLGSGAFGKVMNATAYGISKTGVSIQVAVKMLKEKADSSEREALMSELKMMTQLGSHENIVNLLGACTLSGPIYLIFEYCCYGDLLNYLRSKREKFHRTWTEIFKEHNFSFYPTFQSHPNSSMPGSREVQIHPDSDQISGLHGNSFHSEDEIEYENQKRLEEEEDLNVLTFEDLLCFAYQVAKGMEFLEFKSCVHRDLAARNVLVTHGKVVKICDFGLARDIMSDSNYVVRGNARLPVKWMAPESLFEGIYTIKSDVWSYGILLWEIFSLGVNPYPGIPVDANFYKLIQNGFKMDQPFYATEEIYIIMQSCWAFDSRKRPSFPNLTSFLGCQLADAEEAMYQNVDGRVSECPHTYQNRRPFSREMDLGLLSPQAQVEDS

[2] = molecular target: Mast/stem cell growth factor receptor Kit (Homo sapiens, UniProt P10721); assay: Inhibition of KIT by fluorescence polarization competition immunoassay
Sequence of Mast/stem cell growth factor receptor Kit (P10721 whole entry): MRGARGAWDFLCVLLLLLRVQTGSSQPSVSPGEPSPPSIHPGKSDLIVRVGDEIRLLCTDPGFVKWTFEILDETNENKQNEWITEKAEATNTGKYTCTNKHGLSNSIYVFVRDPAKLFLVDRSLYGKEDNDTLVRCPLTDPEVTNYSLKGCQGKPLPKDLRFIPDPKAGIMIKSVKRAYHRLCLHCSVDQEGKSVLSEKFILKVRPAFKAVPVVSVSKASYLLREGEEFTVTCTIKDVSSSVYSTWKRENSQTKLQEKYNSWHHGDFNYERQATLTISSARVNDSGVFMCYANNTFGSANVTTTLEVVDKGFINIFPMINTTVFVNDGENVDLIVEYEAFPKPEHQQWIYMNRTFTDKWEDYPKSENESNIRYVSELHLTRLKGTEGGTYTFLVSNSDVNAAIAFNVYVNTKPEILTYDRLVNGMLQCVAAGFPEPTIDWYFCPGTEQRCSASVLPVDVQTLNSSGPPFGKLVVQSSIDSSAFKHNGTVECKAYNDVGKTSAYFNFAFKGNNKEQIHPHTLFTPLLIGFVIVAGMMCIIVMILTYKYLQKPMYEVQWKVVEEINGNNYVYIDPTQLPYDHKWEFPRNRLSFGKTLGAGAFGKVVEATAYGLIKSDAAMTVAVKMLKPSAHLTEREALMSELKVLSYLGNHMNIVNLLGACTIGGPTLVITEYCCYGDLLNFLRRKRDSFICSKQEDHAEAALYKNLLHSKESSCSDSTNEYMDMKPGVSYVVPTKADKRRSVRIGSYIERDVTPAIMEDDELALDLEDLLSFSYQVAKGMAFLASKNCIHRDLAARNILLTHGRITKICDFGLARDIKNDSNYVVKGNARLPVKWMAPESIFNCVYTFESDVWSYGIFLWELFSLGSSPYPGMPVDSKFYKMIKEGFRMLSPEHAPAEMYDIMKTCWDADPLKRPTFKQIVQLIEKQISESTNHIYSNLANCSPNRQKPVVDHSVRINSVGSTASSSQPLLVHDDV

[3] = molecular target: Platelet-derived growth factor receptor beta (Homo sapiens, UniProt P09619); assay: Inhibition of PDGFRbeta by fluorescence polarization competition immunoassay
Sequence of Platelet-derived growth factor receptor beta (P09619 whole entry): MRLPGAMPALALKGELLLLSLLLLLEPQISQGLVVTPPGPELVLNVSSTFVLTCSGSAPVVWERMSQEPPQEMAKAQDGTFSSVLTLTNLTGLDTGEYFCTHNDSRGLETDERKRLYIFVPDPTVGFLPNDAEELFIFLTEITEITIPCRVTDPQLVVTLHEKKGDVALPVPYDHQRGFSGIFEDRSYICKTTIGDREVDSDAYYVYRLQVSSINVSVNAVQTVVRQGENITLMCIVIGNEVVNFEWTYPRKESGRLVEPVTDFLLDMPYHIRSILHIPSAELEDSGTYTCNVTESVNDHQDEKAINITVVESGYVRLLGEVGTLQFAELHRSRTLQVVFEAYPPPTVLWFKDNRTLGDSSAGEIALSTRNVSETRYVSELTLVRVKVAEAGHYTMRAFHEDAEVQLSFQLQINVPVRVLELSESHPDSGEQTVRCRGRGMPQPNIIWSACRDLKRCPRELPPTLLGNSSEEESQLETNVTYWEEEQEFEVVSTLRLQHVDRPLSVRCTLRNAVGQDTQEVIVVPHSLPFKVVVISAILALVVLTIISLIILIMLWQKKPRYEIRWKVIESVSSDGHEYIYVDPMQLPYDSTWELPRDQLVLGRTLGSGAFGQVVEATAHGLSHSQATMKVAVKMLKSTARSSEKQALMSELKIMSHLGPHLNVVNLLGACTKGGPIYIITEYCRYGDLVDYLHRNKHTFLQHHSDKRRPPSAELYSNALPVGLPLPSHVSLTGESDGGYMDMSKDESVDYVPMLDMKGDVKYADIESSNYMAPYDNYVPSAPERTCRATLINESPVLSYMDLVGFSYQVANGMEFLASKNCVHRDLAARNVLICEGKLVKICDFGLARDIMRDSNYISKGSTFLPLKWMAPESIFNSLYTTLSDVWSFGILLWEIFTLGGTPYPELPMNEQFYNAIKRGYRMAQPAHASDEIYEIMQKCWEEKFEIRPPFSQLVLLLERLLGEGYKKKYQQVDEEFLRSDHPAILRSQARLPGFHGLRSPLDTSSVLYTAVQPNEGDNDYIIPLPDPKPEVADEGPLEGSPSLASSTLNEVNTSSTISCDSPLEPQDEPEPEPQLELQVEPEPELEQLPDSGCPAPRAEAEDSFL

[4] = molecular target: T2, Tyrosine-protein kinase receptor UFO (Homo sapiens, UniProt P30530); assay: Inhibition of Axl by fluorescence polarization competition immunoassay
T2 sequence (P30530 whole entry): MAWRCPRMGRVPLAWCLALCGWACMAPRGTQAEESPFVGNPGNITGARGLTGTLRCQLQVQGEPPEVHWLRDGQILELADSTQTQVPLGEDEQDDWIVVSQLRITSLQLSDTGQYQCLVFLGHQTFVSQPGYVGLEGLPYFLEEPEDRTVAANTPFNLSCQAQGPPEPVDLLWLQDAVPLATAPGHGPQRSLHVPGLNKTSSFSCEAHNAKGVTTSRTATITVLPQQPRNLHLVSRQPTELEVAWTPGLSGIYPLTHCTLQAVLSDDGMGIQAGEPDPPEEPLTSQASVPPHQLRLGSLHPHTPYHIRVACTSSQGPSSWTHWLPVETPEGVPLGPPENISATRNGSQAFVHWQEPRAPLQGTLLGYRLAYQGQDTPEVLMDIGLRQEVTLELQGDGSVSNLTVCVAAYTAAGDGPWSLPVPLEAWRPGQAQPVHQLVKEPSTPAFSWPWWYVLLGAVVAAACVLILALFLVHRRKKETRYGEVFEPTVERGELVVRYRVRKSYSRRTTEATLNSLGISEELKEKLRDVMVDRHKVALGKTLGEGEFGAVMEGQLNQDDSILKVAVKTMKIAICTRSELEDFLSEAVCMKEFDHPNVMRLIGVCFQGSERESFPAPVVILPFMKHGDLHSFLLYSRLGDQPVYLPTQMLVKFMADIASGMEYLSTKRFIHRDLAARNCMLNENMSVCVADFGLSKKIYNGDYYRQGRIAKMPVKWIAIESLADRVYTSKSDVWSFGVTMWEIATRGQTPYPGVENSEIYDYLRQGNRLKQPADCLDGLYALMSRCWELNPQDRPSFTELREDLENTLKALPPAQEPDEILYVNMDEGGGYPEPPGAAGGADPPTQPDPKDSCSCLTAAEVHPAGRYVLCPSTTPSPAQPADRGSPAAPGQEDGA

[5] = molecular target: High affinity nerve growth factor receptor (Homo sapiens, UniProt P04629); assay: Inhibition of TrkA by fluorescence polarization competition immunoassay
Insulin receptor = Insulin receptor (Homo sapiens, UniProt P06213); assay: Inhibition of IRKbeta by fluorescence polarization competition immunoassay
Sequence of Insulin receptor (P06213 28-758 limits assumed): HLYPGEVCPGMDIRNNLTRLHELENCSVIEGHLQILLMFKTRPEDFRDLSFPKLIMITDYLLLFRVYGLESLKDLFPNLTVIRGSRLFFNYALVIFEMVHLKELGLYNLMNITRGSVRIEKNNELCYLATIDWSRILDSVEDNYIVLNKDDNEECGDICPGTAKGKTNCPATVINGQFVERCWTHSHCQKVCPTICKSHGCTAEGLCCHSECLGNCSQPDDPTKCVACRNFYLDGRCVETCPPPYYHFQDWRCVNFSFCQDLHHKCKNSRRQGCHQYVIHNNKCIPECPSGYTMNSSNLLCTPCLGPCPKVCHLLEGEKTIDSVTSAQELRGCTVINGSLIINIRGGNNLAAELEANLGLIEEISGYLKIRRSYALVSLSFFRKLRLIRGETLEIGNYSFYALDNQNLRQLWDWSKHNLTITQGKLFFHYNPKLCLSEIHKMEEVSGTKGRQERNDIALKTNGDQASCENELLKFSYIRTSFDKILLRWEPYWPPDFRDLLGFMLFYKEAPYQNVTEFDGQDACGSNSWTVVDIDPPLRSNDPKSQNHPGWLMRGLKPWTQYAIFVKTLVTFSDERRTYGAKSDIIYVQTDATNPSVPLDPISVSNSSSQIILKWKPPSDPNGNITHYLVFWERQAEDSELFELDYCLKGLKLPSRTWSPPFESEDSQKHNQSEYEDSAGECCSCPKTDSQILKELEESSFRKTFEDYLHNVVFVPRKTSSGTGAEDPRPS
Sequence of Insulin receptor (P06213 763-1382 limits assumed): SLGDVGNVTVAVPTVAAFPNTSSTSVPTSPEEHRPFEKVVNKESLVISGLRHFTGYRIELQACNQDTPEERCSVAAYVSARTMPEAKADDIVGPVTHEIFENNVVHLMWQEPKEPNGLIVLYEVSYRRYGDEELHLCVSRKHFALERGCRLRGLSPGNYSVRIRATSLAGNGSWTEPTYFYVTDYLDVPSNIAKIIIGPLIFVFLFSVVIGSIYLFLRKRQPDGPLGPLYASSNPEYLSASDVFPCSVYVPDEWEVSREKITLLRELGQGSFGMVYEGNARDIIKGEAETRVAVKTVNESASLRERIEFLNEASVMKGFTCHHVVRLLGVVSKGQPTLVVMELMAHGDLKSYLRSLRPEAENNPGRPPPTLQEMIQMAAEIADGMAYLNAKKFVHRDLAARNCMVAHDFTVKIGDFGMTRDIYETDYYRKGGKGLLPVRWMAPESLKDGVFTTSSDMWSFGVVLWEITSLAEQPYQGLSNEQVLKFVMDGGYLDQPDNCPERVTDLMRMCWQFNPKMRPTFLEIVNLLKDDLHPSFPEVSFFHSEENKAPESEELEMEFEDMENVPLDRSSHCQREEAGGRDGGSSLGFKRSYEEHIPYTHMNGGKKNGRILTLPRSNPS

[6] = molecular target: Proto-oncogene tyrosine-protein kinase Src (Homo sapiens, UniProt P12931); assay: Inhibition of Src by fluorescence polarization competition immunoassay
Sequence of Proto-oncogene tyrosine-protein kinase Src (P12931 2-536 limits assumed): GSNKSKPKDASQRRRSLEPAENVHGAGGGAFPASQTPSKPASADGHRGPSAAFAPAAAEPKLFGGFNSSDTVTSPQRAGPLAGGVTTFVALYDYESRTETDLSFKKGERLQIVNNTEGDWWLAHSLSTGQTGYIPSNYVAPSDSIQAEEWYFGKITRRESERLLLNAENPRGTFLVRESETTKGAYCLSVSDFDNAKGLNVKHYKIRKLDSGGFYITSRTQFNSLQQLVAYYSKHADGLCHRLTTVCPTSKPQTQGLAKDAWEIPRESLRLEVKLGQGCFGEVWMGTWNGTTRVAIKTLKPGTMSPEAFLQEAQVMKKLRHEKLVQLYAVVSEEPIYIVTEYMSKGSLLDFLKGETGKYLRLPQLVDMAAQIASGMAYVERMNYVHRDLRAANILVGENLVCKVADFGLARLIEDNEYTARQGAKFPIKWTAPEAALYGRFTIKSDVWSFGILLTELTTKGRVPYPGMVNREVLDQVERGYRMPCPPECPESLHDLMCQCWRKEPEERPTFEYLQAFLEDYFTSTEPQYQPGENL

[7] = Metabolic stability in rat liver microsomes after 10 mins; type: ADME, Microsome; settings: read-out: Stability
[8] = Half life in Sprague-Dawley rat at 2 mg/kg, iv; type: ADME, organism-based; parameters: dose 2 mg/kg, route intravenous; settings: in vivo
[9] = Clearance in Sprague-Dawley rat at 2 mg/kg, iv; type: ADME, organism-based; parameters: dose 2 mg/kg, route intravenous; settings: in vivo
[10] = Volume of distribution at steady state in Sprague-Dawley rat at 2 mg/kg, iv; type: ADME, organism-based; parameters: dose 2 mg/kg, route intravenous; settings: in vivo, read-out: Vdss
[11] = Oral bioavailability in Sprague-Dawley rat at 10 mg/kg; type: ADME, organism-based; settings: in vivo
[12] = Metabolic stability in human liver microsomes after 10 mins; type: ADME, Microsome; settings: read-out: Stability
[13] = molecular target: Macrophage colony-stimulating factor 1 receptor (Homo sapiens, UniProt P07333)
Sequence of Macrophage colony-stimulating factor 1 receptor (P07333 whole entry): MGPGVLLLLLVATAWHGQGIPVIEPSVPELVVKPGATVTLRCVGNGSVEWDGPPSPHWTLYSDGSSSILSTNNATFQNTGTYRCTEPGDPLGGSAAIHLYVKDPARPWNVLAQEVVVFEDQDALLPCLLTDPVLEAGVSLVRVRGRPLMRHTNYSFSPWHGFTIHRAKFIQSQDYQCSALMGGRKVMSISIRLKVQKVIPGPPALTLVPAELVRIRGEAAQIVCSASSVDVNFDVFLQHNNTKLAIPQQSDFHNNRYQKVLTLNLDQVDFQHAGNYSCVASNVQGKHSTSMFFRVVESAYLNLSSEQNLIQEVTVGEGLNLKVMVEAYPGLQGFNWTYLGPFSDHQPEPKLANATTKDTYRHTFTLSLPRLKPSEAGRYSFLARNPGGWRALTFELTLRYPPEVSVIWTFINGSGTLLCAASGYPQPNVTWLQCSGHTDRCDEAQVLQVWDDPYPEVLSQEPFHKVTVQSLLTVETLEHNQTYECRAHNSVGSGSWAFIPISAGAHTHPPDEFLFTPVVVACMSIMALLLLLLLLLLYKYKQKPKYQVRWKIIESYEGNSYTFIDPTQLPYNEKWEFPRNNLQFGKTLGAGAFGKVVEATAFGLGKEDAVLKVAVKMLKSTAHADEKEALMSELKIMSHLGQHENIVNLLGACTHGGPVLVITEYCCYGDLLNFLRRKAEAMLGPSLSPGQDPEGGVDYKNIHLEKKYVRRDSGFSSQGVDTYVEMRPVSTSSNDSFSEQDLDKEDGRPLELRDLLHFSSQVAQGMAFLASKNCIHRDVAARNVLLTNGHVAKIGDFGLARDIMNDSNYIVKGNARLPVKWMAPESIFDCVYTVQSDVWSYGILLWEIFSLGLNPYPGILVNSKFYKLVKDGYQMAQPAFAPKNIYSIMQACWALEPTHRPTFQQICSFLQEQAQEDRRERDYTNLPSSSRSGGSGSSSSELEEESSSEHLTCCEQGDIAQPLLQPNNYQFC

[14] = Cmax in Sprague-Dawley rat at 10 mg/kg, po; type: ADME, organism-based; parameters: dose 10 mg/kg, route oral; settings: in vivo
[15] = Half life in Sprague-Dawley rat at 10 mg/kg, po; type: ADME, organism-based; parameters: dose 10 mg/kg, route oral; settings: in vivo
Rattus norvegicus [16] = organism: Rattus norvegicus; assay: Toxicity in rat assessed as induction of mucoid feces; type: organism-based; settings: in vivo
Rattus norvegicus [17] = organism: Rattus norvegicus; assay: Toxicity in rat assessed as induction of cold body; type: organism-based; settings: in vivo
Rattus norvegicus [18] = organism: Rattus norvegicus; assay: Toxicity in rat assessed as induction of weight loss; type: organism-based; settings: in vivo

CONC(=O)c1cn(-c2ccc3c(c2)CCC3)c2nc(Nc3ccc(C4CCN(CC(=O)O)CC4)cc3)ncc2c1=O
IC50 [1]: 41 nM | IC50 [2]: 13 nM | IC50 [3]: > 2000 nM | IC50 [4]: > 500 nM | IC50 [5]: > 500 nM | IC50 (Insulin receptor): 9300 nM | IC50 [6]: 930 nM | remaining at 10 min [7]: 99% | half-life [8]: 1.7 h | clearance [9]: 38 mL/min/kg | Vd [10]: 5.1 L/kg | bioavailability [11]: 0% | remaining at 10 min [12]: 100%

CONC(=O)c1cn(-c2ccc3c(c2)CCC3)c2nc(Nc3ccc(CCS(=O)(=O)NC(C)=O)cc3)ncc2c1=O
remaining at 10 min [7]: 83% | remaining at 10 min [12]: 84%

CCCCNc1ncc2c(=O)c(C(=O)NOC)cn(-c3ccc4c(c3)CCC4)c2n1
IC50 [13]: 15 nM

CCc1ccc(-n2cc(C(=O)NOC)c(=O)c3cnc(Nc4ccc(C5CCN(C)CC5)cc4)nc32)cc1
remaining at 10 min [7]: 96% | Cmax [14]: 3400 nM | half-life [15]: 8.1 h | half-life [8]: 8 h | clearance [9]: 8 mL/min/kg | Vd [10]: 5.9 L/kg | bioavailability [11]: 103% | remaining at 10 min [12]: 75% | Activity (Rattus norvegicus [16]): Non-toxic | Activity (Rattus norvegicus [17]): Non-toxic | Activity (Rattus norvegicus [18]): Non-toxic

CONC(=O)c1cn(C2CCCCC2)c2nc(Nc3ccc(C4CCN(C)CC4)cc3)ncc2c1=O
remaining at 10 min [7]: 68% | remaining at 10 min [12]: 96% | IC50 [13]: 5 nM

CONC(=O)c1cn(-c2ccc3c(c2)CCC3)c2nc(Nc3ccc(CCN4CCOCC4)cc3)ncc2c1=O
remaining at 10 min [7]: 24% | remaining at 10 min [12]: 5.4%

CCN1CCCC(O)(c2cccc(Nc3ncc4c(=O)c(C(=O)NOC)cn(-c5ccc6c(c5)CCC6)c4n3)c2)C1 (centres undefined)
remaining at 10 min [7]: 89% | Cmax [14]: 400 nM | half-life [8]: 5.2 h | clearance [9]: 20.4 mL/min/kg | Vd [10]: 5.6 L/kg | bioavailability [11]: 28% | remaining at 10 min [12]: 88%

CONC(=O)c1cn(-c2ccc3c(c2)CCC3)c2nc(Nc3ccc(CCN4CCC(F)(F)CC4)cc3)ncc2c1=O
remaining at 10 min [7]: 86% | remaining at 10 min [12]: 83%

CONC(=O)c1cn(-c2ccc3c(c2)CCC3)c2nc(Nc3ccc(CCN4CCN(C)CC4)cc3)ncc2c1=O
IC50 [1]: 36 nM | IC50 [2]: 6 nM | IC50 [3]: 5300 nM | IC50 [4]: > 500 nM | IC50 [5]: > 500 nM | IC50 (Insulin receptor): 19800 nM | IC50 [6]: 1500 nM | remaining at 10 min [7]: 78% | Cmax [14]: 2700 nM | half-life [15]: 6.5 h | half-life [8]: 4.5 h | clearance [9]: 4 mL/min/kg | Vd [10]: 1.5 L/kg | bioavailability [11]: 57% | IC50 [13]: 0.7 nM

CONC(=O)c1cn(-c2ccc3c(c2)CCC3)c2nc(NCc3ccccc3)ncc2c1=O
IC50 [13]: 75 nM

CONC(=O)c1cn(-c2ccc3c(c2)CCC3)c2nc(Nc3ccc(OC)nc3)ncc2c1=O
IC50 [13]: 5.2 nM

CN1CCN(c2ccc(Nc3ncc4c(=O)c(C(N)=O)cn(-c5ccc6c(c5)CCC6)c4n3)cc2)CC1
bioavailability [11]: 0%

CONC(=O)c1cn(-c2ccc3c(c2)CCC3)c2nc(Nc3ccc(CCN4CCN(C)C(=O)C4)cc3)ncc2c1=O
remaining at 10 min [7]: 29% | remaining at 10 min [12]: 2.8% | IC50 [13]: 0.8 nM

CCNC(=O)c1cn(-c2ccc3c(c2)CCC3)c2nc(Nc3ccc(CCN4CCN(C)CC4)cc3)ncc2c1=O
IC50 [13]: 3.2 nM

CC(C)ONC(=O)c1cn(-c2ccc3c(c2)CCC3)c2nc(Nc3ccc(CCN4CCN(C)CC4)cc3)ncc2c1=O
remaining at 10 min [7]: 100% | IC50 [13]: 0.5 nM

CONC(=O)c1cn(-c2ccc3c(c2)CCC3)c2nc(Nc3ccc(C4CCNCC4)cc3)ncc2c1=O
remaining at 10 min [7]: 93% | remaining at 10 min [12]: 97% | IC50 [13]: 0.5 nM

CN1CCN(CCc2ccc(Nc3ncc4c(=O)c(C(=O)NCCO)cn(-c5ccc6c(c5)CCC6)c4n3)cc2)CC1
remaining at 10 min [7]: 84% | IC50 [13]: 0.7 nM

CCc1cccc(-n2cc(C(=O)NOC)c(=O)c3cnc(Nc4ccc(C5CCN(C)CC5)cc4)nc32)c1
IC50 [13]: 0.4 nM

CN1CCN(CCc2ccc(Nc3ncc4c(=O)c(C(N)=O)cn(-c5ccc6c(c5)CCC6)c4n3)cc2)CC1
IC50 [1]: 1 nM | IC50 [2]: 20 nM | IC50 [3]: > 42000 nM | IC50 [4]: > 500 nM | IC50 [5]: 170 nM | IC50 (Insulin receptor): > 42000 nM | IC50 [6]: 5900 nM | remaining at 10 min [7]: 96% | half-life [8]: 7 h | clearance [9]: 25 mL/min/kg | Vd [10]: 15.5 L/kg | bioavailability [11]: 0%

CONC(=O)c1cn(-c2ccc3c(c2)CCC3)c2nc(Nc3ccc(C4CCN(CCO)CC4)cc3)ncc2c1=O
remaining at 10 min [7]: 100% | Cmax [14]: 130 nM | half-life [8]: 3 h | clearance [9]: 34 mL/min/kg | Vd [10]: 8.8 L/kg | bioavailability [11]: 8% | remaining at 10 min [12]: 80%

CONC(=O)c1cn(-c2ccc3c(c2)CCC3)c2nc(Nc3ccc(CCN4CCNC(=O)C4)cc3)ncc2c1=O
remaining at 10 min [7]: 69% | Cmax [14]: 80 nM | half-life [15]: 9.7 h | half-life [8]: 6 h | clearance [9]: 10 mL/min/kg | Vd [10]: 0.8 L/kg | bioavailability [11]: 3% | remaining at 10 min [12]: 35%

CCONC(=O)c1cn(-c2ccc3c(c2)CCC3)c2nc(Nc3ccc(CCN4CCN(C)CC4)cc3)ncc2c1=O
remaining at 10 min [7]: 84%

CONC(=O)c1cn(-c2ccc3c(c2)CCC3)c2nc(Nc3ccc(C4CCN(C)CC4(F)F)cc3)ncc2c1=O (centres undefined)
remaining at 10 min [7]: 44% | remaining at 10 min [12]: 16% | IC50 [13]: 0.7 nM

CONC(=O)c1cn(C2CCC(C)(C)CC2)c2nc(Nc3ccc(C4CCN(C)CC4)cc3)ncc2c1=O
remaining at 10 min [7]: 97% | remaining at 10 min [12]: 93%

CNC(=O)c1cn(-c2ccc3c(c2)CCC3)c2nc(Nc3ccc(CCN4CCN(C)CC4)cc3)ncc2c1=O
remaining at 10 min [7]: 73% | IC50 [13]: 1.2 nM

CNC(=O)c1cn(-c2ccc3c(c2)CCC3)c2nc(Nc3ccc(CCN4CCOCC4)cc3)ncc2c1=O
remaining at 10 min [7]: 100% | Cmax [14]: 130 nM | half-life [15]: 1.8 h | half-life [8]: 0.7 h | clearance [9]: 47 mL/min/kg | Vd [10]: 2.6 L/kg | bioavailability [11]: 4% | IC50 [13]: 1.4 nM
